This is an account of results in patent publication US20260355129A1, “5-HT2C AGONISTS FOR TREATING PRADER-WILLI SYNDROME (PWS), METABOLIC SYNDROMES, AND OTHER DISEASES AND DISORDERS” (Park City Bio, LLC, priority 2025, published 2026).

The structures appear in SMILES notation.

One may read the Emax as the greatest response seen or fitted, relative to the assay's reference.

Common to all, as to assay type: cell-based
What all share (settings): HEK-293T, HEK293T, normalized to % 5-HT stimulation, class symbols (Table 5)

The target in one assay is T1, 5-HT2A receptor (Homo sapiens, UniProt P28223).
T1 construct: expressed in transfected cells; host or cells: HEK293T
T1 sequence (P28223 whole entry): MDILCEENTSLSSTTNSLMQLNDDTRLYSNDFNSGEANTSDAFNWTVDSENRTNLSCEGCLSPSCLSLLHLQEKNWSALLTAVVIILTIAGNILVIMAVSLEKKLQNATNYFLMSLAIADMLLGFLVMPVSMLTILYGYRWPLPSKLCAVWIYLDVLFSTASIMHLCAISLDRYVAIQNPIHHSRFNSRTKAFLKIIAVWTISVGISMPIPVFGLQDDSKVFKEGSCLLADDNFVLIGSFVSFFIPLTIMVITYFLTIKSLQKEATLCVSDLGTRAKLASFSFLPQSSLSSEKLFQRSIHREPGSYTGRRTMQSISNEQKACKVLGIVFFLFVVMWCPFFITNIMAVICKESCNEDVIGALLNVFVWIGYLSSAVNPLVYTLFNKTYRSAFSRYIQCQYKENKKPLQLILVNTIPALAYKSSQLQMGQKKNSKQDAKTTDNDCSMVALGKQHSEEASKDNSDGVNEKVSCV
The assay can be described thus: 5-HT2 receptor-mediated Gq activation, Gq/y1 dissociation by BRET, 5-HT2A. An excerpt:
(§1) To measure 5-HT2 receptor-mediated Gq activation via Gq/y1 dissociation as measured by Bioluminescence Resonance Energy Transfer (BRET) (McCorvy J D, Wacker D, Wang S, Agegnehu B, Liu J, Lansu K, Tribo A R, Olsen R H J, Che T, Jin J, Roth B L. Structural determinants of 5-HT2B receptor activation and biased agonism. Nat Struct Mo/Biol. 2018; 25(9): 787-96), HEK293T cells were sub-cultured in Dulbecco's Modified Eagle Medium (DMEM) supplemented with 10% dialyzed fetal bovine serum (FBS) and were co-transfected in a 1:1:1:1 ratio with Rluc8-fused human Gaq (Gaq-Rluc8), a GFP2-fused to the C-terminus of human Gy1(Gy1-GFP2), human G131, and 5-HT2 receptor using TransiT-2020. […] Substrate addition occurred 15 minutes before reading and utilized 10 μL of the Rluc substrate coelenterazine 400a for Gq dissociation BRET^2 (Prolume/Nanolight, 5 μM final concentration). Plates were read for luminescence at 400 nm and fluorescent GFP2 emission at 510 nm at 1 second per well using a Mithras LB940 multimode microplate reader (e.g. one provided by Berthold). The BRET ratios of fluorescence/luminescence were calculated per well and were plotted as a function of drug concentration using Graphpad Prism 8 (Graphpad Software Inc., San Diego, CA).
A general note: In BRET a luciferase serves as donor, and the signal depends on an acceptor being close.

For a further assay, the target named is T2, 5-HT2B receptor (Homo sapiens, UniProt P41595).
T2 construct: expressed in transfected cells; host or cells: HEK293T
T2 sequence (P41595 whole entry): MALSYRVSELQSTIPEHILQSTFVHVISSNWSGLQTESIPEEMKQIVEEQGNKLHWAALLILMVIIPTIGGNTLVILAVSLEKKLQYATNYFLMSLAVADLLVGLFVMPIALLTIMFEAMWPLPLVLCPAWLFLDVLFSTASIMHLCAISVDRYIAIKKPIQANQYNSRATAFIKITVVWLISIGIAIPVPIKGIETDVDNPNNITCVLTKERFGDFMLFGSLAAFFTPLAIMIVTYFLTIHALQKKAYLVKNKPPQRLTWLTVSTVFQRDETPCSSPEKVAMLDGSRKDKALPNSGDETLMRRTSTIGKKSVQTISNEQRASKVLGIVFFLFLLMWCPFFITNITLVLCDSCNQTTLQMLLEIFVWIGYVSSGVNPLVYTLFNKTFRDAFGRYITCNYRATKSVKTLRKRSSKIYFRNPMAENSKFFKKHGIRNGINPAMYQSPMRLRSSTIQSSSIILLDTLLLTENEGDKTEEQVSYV
The assay can be described thus: 5-HT2 receptor-mediated Gq activation, Gq/y1 dissociation by BRET, 5-HT2B.
Source text: as §1

The target of another assay is T3, 5-HT2C receptor (Homo sapiens, UniProt P28335).
T3 construct: expressed in transfected cells; host or cells: HEK293T
T3 sequence (P28335 33-458): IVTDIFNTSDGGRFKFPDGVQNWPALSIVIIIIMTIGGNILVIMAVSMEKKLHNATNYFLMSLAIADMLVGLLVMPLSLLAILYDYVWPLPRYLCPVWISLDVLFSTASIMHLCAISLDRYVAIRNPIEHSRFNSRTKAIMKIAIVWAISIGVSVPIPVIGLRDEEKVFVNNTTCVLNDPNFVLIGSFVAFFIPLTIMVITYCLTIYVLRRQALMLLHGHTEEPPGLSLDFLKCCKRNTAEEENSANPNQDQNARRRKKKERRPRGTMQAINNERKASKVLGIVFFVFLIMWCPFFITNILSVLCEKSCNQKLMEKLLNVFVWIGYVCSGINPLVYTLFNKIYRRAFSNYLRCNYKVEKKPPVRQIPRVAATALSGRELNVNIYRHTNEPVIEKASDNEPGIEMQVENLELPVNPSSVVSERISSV
Briefly: 5-HT2 receptor-mediated Gq activation, Gq/y1 dissociation by BRET, 5-HT2C.
Source text: as §1

For `CNC[C@H]1C[C@@H]1c1cc(F)ccc1OC`, the Emax at 5-HT2A receptor, at 5-HT2B receptor and at 5-HT2C receptor was 50 to 80% in each case.

`CNCC1CC1c1cc(F)ccc1SC` (centres unmarked): the Emax on 5-HT2A receptor and on 5-HT2C receptor was 50 to 80% throughout.
